Experimental data as given in patent US12448389B2, “BRM targeting compounds and associated methods of use” (Prelude Therapeutics Incorporated, priority 2020, dated 2025).

Assays:
SMARCA4-HiBiT = target: T1, SMARCA4-HiBiT (Homo sapiens, UniProt P51532); test: SMARCA4 HiBiT degradation assay in HeLa cells; assay type: cell-based; details: 18 hours incubation; for DC50: read-out: HeLa-HiBit-SM4 DC50; for Dmax: HeLa, read-out: HeLa-HiBit-SM4 Dmax (%)
T1 construct: SMARCA4-HiBiT knock-in Hela monoclonal cell (CS3023226); host or cells: HeLa monoclonal knock-in line (CRISPR HiBiT knock-in at the endogenous locus, heterozygous)
How it was run: (§1)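 HeLa monoclonal lines with heterozygous HiBiT knock-in were seeded at 2500 cells/well in EMEM with 10% FBS and treated with compound for 18 h at 37 °C. Remaining tagged protein was measured by Nano-Glo HiBiT lytic luminescence after 30–60 min at RT, and values came from curve fitting.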

SMARCA2-HiBiT = target: T2, SMARCA2-HiBiT (Homo sapiens, UniProt P51531); test: SMARCA2 HiBiT degradation assay in HeLa cells; assay type: cell-based; details: 18 hours incubation; for DC50: read-out: HeLa_HiBit-SM2 DC50; for Dmax: HeLa, read-out: HeLa-HiBit-SM2 Dmax (%)
T2 construct: SMARCA2-HiBiT knock-in Hela monoclonal cell (CS302366); host or cells: HeLa monoclonal knock-in line (CRISPR HiBiT knock-in at the endogenous locus, heterozygous)
How it was run: as §1

T2 sequence (P51531 whole entry): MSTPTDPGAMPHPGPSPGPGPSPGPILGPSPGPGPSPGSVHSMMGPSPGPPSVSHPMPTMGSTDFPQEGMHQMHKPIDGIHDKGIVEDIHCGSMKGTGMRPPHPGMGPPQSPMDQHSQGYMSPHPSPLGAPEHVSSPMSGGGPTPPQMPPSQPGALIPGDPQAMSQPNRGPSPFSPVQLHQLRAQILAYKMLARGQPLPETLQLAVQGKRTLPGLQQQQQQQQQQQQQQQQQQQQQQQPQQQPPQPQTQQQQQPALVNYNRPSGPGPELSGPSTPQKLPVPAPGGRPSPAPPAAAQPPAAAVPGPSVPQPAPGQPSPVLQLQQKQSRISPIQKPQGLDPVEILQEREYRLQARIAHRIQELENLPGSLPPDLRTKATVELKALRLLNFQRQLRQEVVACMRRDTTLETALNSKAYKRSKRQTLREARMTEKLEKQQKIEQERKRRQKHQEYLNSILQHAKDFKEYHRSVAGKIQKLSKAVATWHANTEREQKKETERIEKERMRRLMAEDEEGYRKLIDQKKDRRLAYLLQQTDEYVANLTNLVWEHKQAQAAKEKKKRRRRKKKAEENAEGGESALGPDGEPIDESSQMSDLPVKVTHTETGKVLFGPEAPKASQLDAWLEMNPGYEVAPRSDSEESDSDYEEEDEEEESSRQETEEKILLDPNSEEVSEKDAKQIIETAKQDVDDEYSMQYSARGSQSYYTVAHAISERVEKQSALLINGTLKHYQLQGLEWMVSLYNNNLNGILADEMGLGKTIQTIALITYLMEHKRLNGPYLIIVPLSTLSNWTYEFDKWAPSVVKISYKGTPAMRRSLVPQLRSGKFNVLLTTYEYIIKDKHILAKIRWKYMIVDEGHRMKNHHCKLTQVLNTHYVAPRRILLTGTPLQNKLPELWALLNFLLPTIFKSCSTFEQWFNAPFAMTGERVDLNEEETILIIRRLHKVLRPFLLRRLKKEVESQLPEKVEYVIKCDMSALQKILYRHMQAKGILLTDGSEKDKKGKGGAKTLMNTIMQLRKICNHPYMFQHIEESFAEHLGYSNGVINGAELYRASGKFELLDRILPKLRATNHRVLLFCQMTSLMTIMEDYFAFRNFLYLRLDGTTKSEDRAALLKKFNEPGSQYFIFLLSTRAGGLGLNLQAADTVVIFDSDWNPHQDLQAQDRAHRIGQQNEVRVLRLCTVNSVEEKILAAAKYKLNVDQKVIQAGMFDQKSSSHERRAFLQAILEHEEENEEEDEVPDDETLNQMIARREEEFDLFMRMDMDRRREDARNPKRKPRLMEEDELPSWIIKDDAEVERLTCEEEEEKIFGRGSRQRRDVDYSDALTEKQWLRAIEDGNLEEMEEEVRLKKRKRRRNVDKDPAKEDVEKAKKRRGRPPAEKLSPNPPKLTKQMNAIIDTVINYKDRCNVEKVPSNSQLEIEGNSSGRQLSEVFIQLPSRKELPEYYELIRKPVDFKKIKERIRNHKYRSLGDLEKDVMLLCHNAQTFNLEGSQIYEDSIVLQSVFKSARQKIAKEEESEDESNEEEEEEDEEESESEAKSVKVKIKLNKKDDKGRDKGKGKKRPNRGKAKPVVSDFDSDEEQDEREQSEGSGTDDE
T1 sequence (P51532 whole entry): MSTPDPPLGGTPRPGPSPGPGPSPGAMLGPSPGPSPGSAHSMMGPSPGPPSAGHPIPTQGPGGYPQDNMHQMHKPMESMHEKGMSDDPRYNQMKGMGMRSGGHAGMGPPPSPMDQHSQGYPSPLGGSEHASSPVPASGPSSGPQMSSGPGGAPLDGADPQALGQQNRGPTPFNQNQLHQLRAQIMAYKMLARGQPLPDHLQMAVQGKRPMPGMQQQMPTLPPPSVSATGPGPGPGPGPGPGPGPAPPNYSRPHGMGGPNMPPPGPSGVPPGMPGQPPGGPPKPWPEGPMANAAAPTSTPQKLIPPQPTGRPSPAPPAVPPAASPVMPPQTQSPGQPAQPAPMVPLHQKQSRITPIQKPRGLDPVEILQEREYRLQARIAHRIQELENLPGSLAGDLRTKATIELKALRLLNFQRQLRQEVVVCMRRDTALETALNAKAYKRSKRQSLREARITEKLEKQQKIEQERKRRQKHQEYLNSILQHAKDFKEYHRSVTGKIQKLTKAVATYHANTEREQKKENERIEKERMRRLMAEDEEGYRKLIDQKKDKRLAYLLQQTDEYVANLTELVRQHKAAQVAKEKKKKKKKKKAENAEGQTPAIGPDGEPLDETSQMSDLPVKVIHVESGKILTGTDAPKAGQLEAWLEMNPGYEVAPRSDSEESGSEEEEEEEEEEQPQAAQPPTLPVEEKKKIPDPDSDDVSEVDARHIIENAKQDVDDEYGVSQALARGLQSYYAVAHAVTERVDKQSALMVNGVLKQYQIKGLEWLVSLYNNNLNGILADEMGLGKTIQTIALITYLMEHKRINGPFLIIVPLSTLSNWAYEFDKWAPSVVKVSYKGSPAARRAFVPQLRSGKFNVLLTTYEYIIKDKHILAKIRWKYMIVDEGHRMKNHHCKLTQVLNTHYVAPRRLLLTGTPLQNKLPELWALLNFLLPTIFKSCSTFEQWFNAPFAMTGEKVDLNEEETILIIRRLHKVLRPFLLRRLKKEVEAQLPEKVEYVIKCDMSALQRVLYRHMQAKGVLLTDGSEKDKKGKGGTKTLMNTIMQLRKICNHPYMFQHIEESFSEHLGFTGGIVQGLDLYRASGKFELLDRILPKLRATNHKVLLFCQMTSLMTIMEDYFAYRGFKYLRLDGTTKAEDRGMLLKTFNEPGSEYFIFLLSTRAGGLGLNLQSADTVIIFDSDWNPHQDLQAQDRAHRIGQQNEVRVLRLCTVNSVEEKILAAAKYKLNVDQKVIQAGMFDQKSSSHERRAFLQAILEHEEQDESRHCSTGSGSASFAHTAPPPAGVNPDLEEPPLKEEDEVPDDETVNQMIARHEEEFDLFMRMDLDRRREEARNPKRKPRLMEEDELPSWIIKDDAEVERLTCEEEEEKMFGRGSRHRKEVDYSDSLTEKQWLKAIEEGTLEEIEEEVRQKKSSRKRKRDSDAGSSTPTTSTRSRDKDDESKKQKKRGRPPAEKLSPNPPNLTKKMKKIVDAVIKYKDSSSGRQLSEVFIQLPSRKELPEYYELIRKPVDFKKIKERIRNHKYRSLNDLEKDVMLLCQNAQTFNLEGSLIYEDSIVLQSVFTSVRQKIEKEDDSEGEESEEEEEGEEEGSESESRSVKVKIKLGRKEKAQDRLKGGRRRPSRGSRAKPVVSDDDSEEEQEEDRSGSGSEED

| DC50 (SMARCA4-HiBiT) [nM] | Dmax (SMARCA4-HiBiT) [%] | DC50 (SMARCA2-HiBiT) [nM] | Dmax (SMARCA2-HiBiT) [%] | Compound |
| --- | --- | --- | --- | --- |
| 100 to 1000 | ≤ 50 | 10 to 100 | 75 to 85 | O=C1CCC(N2Cc3cc(OCCN4CCCC(CN5CCN6c7cc(-c8ccccc8O)nnc7NC[C@H]6C5)C4)ccc3C2=O)C(=O)N1 (stereo partly drawn) [Example 255, 3-(5-(2-(3-(((S)-2-(2-hydroxyphenyl)-5,6,6a,7,9,10-hexahydro-8H-pyrazino[1′,2′:4,5]pyrazino[2,3-c]pyridazin-8-yl)methyl)piperidin-1-yl)ethoxy)-1-oxoisoindolin-2-yl)piperidine-2,6-dione] |
| 10 to 100 | 50 to 75 | < 10 | 50 to 75 | O=C1CCC(N2C(=O)c3ccc(N4CCC(F)(CN5C[C@@H]6[C@@H](CN7CCN8c9cc(-c%10ccccc%10O)nnc9NC[C@H]8C7)[C@@H]6C5)CC4)cc3C2=O)C(=O)N1 (stereo partly drawn) [Example 149, 2-(2,6-dioxopiperidin-3-yl)-5-(4-fluoro-4-(((1R,5S,6s)-6-(((S)-2-(2-hydroxyphenyl)-5,6,6a,7,9,10-hexahydro-8H-pyrazino[1′,2′:4,5]pyrazino[2,3-c]pyridazin-8-yl)methyl)-3-azabicyclo[3.1.0]hexan-3-yl)methyl)piperidin-1-yl)isoindoline-1,3-dione] |
| < 10 | 50 to 75 | < 10 | 75 to 85 | CC(C1CCN(c2ccc3c(c2)C(=O)N(C2CCC(=O)NC2=O)C3=O)CC1)N1CCC(CN2CCN3c4cc(-c5ccccc5O)nnc4NCC3C2)CC1 (stereo in doubt) [Example 160, 2-(2,6-dioxopiperidin-3-yl)-5-[4-[1-[4-[[(10S)-4-(2-hydroxyphenyl)-1,5,6,8,12-pentazatricyclo[8.4.0.02,7]tetradeca-2(7),3,5-trien-12-yl]methyl]piperidin-1-yl]ethyl]piperidin-1-yl]isoindole-1,3-dione] |
| < 10 | 75 to 85 | < 10 | > 85 | O=C1CCC(N2C(=O)c3ccc(N4CC5(CC(N6C[C@@H]7[C@@H](CN8CCN9c%10cc(-c%11ccccc%11O)nnc%10NC[C@H]9C8)[C@@H]7C6)C5)C4)cc3C2=O)C(=O)N1 (stereo partly drawn) [Example 259, 2-(2,6-dioxopiperidin-3-yl)-5-(6-((1R,5S,6s)-6-(((S)-2-(2-hydroxyphenyl)-5,6,6a,7,9,10-hexahydro-8H-pyrazino[1′,2′:4,5]pyrazino[2,3-c]pyridazin-8-yl)methyl)-3-azabicyclo[3.1,0]hexan-3-yl)-2-azaspiro[3.3]heptan-2-yl)isoindoline-1,3-dione] |
| < 10 | 75 to 85 | < 10 | > 85 | O=C1CCC(N2Cc3cc(N4CCC(CN5CCC(OC(=O)N6CCN7c8cc(-c9ccccc9O)nnc8NC[C@H]7C6)CC5)CC4)ccc3C2=O)C(=O)N1 (stereo partly drawn) [Example 83, 1-((1-(2-(2,6-dioxopiperidin-3-yl)-1-oxoisoindolin-5-yl)piperidin-4-yl)methyl)piperidin-4-yl (6aS)-2-(2-hydroxyphenyl)-5,6,6a,7,9,10-hexahydro-8H-pyrazino[1′,2′:4,5]pyrazino[2,3-c]pyridazine-8-carboxylate] |
| < 10 | 50 to 75 | < 10 | 75 to 85 | O=C1CCC(N2C(=O)c3ccc(N4CC5CCC(C4)C5CN4C[C@@H]5[C@H](C4)[C@H]5CN4CCN5c6cc(-c7ccccc7O)nnc6NC[C@H]5C4)cc3C2=O)C(=O)N1 (stereo partly drawn) [Example 53, 2-(2,6-dioxopiperidin-3-yl)-5-(8-(((1R,5S,6r)-6-(((S)-2-(2-hydroxyphenyl)-5,6,6a,7,9,10-hexahydro-8H-pyrazino [1′,2′:4,5]pyrazino[2,3-c]pyridazin-8-yl)methyl)-3-azabicyclo [3.1,0]hexan-3-yl)methyl)-3-azabicyclo[3.2.1]octan-3-yl)isoindoline-1,3-dione] |
| 10 to 100 | 75 to 85 | < 10 | 50 to 75 | O=C1CCC(N2C(=O)c3ccc(NCCN4C[C@@H]5[C@H](C4)[C@H]5CN4CCN5c6cc(-c7ccccc7O)nnc6NC[C@H]5C4)cc3C2=O)C(=O)N1 (stereo partly drawn) [Example 153, 2-(2,6-dioxopiperidin-3-yl)-5-((2-((1R,5S,6r)-6-(((S)-2-(2-hydroxyphenyl)-5,6,6a,7,9,10-hexahydro-8H-pyrazino[1′,2′:4,5]pyrazino[2,3-c]pyridazin-8-yl)methyl)-3-azabicyclo[3.1.0]hexan-3-yl)ethyl)amino)isoindoline-1,3-dione] |
| < 10 | > 85 | < 10 | > 85 | O=C1CCC(N2C(=O)c3ccc(N4CCC5(CC4)CC(CN4CCC(CN6CCN7c8cc(-c9ccccc9O)nnc8NC[C@H]7C6)CC4)C5)cc3C2=O)C(=O)N1 (stereo partly drawn) [Example 150, 2-(2,6-dioxopiperidin-3-yl)-5-(2-((4-(((S)-2-(2-hydroxyphenyl)-5,6,6a,7,9,10-hexahydro-8H-pyrazino[1′,2′:4,5]pyrazino[2,3-c]pyridazin-8-yl)methyl)piperidin-1-yl)methyl)-7-azaspiro[3.5]nonan-7-yl)isoindoline-1,3-dione] |
| < 10 | 50 to 75 | < 10 | > 85 | O=C1CCC(N2C(=O)c3ccc(N4CCC(CN5C[C@@H]6[C@H](C5)[C@@H]6CN5CCN6c7cc(-c8ccccc8O)nnc7NC[C@H]6C5)CC4)cc3C2=O)C(=O)N1 (stereo partly drawn) [Example 43, 2-(2,6-dioxopiperidin-3-yl)-5-(4-(((1R,5S,6s)-6-(((S)-2-(2-hydroxyphenyl)-5,6,6a,7,9,10-hexahydro-8H-pyrazino[1′,2′:4,5]pyrazino[2,3-c]pyridazin-8-yl)methyl)-3-azabicyclo[3.1.0]hexan-3-yl)methyl)piperidin-1-yl)isoindoline-1,3-dione] |
| 10 to 100 | > 85 | < 10 | > 85 | O=C1CCC(N2Cc3ccc(C4CCN(CCN5CCC(CN6CCN7c8cc(-c9ccccc9O)nnc8NC[C@H]7C6)CC5)CC4)cc3C2=O)C(=O)N1 (stereo partly drawn) [Example 120, 3-(6-(1-(2-(4-(((S)-2-(2-hydroxyphenyl)-5,6,6a,7,9,10-hexahydro-8H-pyrazino[1′,2′:4,5]pyrazino[2,3-c]pyridazin-8-yl)methyl)piperidin-1-yl)ethyl)piperidin-4-yl)-1-oxoisoindolin-2-yl) piperidine-2,6-dione] |
| < 10 | 50 to 75 | < 10 | 75 to 85 | O=C1CCC(N2C(=O)c3ccc(N4CC[C@H](CN5C[C@@H]6[C@H](C5)[C@H]6CN5CCN6c7cc(-c8ccccc8O)nnc7NC[C@H]6C5)[C@H](F)C4)cc3C2=O)C(=O)N1 (stereo partly drawn) [Example 186, 2-(2,6-dioxopiperidin-3-yl)-5-[(3S,4R)-3-fluoro-4-[[(1S,5R)-6-[[(10S)-4-(2-hydroxyphenyl)-1,5,6,8,12-pentazatricyclo[8.4.0.02,7]tetradeca-2(7),3,5-trien-12-yl]methyl]-3-azabicyclo[3.1.0]hexan-3-yl]methyl]piperidin-1-yl]isoindole-1,3-dione] |
| < 10 | 75 to 85 | < 10 | > 85 | O=C1CCC(N2C(=O)c3ccc(N4CCO[C@H](CN5C[C@@H]6[C@H](C5)[C@H]6CN5CCN6c7cc(-c8ccccc8O)nnc7NC[C@H]6C5)C4)cc3C2=O)C(=O)N1 (stereo partly drawn) [Example 52, 2-(2,6-dioxopiperidin-3-yl)-5-((R)-2-(((1R,5S,6S)-6-(((S)-2-(2-hydroxyphenyl)-5,6,6a,7,9,10-hexahydro-8H-pyrazino[1′,2′:4,5]pyrazino[2,3-c]pyridazin-8-yl)methyl)-3-azabicyclo[3.1.0]hexan-3-yl)methyl)morpholino)isoindoline-1,3-dione] |
